Source: publication PMC12256496, “An advancement in developmental and reproductive toxicity (DART) risk assessment: evaluation of a bioactivity and exposure-based NAM toolbox” (Frontiers in Toxicology, 2025)
Read-outs that look alike come from different tables or passages of the source. Blank lines part the entries; values can stand above or below the compound they belong to.

Columns and labels:
[1] = Human in vivo PK data: concentration-dose ratio (CDR) and toxicokinetic variability factor (TKVF); design: 95% percentile (Conc-dose-ratio): unit not given here;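 also: Literature-pooled human in vivo PK data, plasma, serum or cord blood concentrations per daily dose, weighted by study population size across non-pregnant, pregnant and fetal groups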
[2] = test system: developmental or reproductive toxicity in animal or human; details: cited from earlier work
humans = details: ref Supplementary Data Sheet 1, cited from earlier work
[3] = test system: human induced pluripotent stem cell (hiPSC); experiment: devTOX quickPredict (ornithine/cystine ratio, cell viability); format: cell-based
Protocol: devTOX quickPredict is a human induced pluripotent stem cell (hiPSC) -based assay that predicts the concentration at which a compound may elicit developmental toxicity. […] Assays were performed as described in [Palmer et al. (2013)] with modifications. Briefly undifferentiated hiPSCs are exposed to the compound for 48 h, with media and test article replacement every 24 h. Ornithine and […] concentrations were measured from the final 24-h treatment using Ultra-Performance Liquid Chromatography-High Resolution Mass Spectrometry (UPLC-HRMS). Cell viability was assessed after sample collection using the CellTiter-Fluor Cell Viability Assay (Promega). Dose-response analysis for the o/c ratio, cell viability, ornithine response and cystine response were performed with GraphPad Prism (version 9.1 or newer, GraphPad Software). Each data set was fit with a nonlinear model. The standard model used for analysis is a four-parameter log-logistic nonlinear model. However, the Akaike information criterion (GraphPad Prism) was used to determine if an asymmetric (five-parameter) or multiphasic nonlinear model was a better fit for the data than the four-parameter model. The developmental toxicity potential (dTP, o/c ratio) and toxicity potential (TP, cell viability) concentrations were predicted from the respective dose-response curves using the hiPSCs cell developmental toxicity threshold (dTT, 0.85).

[4] = hepatic intrinsic clearance, CLint (PBK parameter); format: in vitro ADME
[5] = human
[6] = cited from earlier work
[7] = test system: human developmental and reproductive toxicity; details: cited from earlier work
[8] = ref FSCJ, EFSA, SCF, JMPR as named in the cell; cited from earlier work
[9] = parental/systemic toxicity, not reproductive effects; ref Supplementary Data Sheet 1; cited from earlier work
[10] = Bioactivity exposure ratio (BER): minimum platform PoD / estimated Cmax
[11] = test system: human induced pluripotent stem cells (hiPSCs); experiment: ReproTracker (cardiomyocyte, hepatocyte-like and neuronal differentiation); format: cell-based
Excerpt: The ReproTracker assay assesses chemical perturbation of early embryonic development by evaluating key events of cardiomyocyte, hepatocyte-like (HLC) and neuronal cell differentiation using human induced pluripotent stem cells (hiPSCs). The ReproTracker protocol is described in ([Jamalpoor et al., 2022]; [Moreau et al., 2023]) and was followed introducing a few modifications to allow for concentration response analysis. […] Lineage specific differentiation was then investigated by assessment of gene expression patterns of cell-specific biomarkers, induced cytotoxicity (AlamarBlue cell viability assay) and by morphological profiling. Gene biomarkers quantified by multiplex qRT-PCR included BMP4 and MYH6 for cardiomyocytes, FOXA2 and AFP for hepatocyte-like cells, PAX6 and NESTIN for neural rosette lineage. […] Saccharin was used as a negative control substance for all 3 lineages. For dose dependent qRT-PCR analysis quality control filtered Ct values were normalised using an adaptation of the Pfaffl ([Pfaffl, 2001]) method to calculate ΔCt values with respect to biomarker and housekeeping gene amplification efficiencies. […] In addition, Alamar blue read outs were taken from the differentiating cells at day 7 and the end of each differentiation to measure cell viability in a dose dependent way. The AlamarBlue readout was normalised and transformed using a Bayesian hierarchical approach The Bayesian model assumes measurement between rows on the treatment plates are correlated but allows for differences in average sample response between rows. […] The final cell viability PODs were those at time point end (day 14 for cardiomyocytes, day 21 for HCLs and day 13 for neural) and had CDS above or equal to 0.5. Both the gene biomarker PODs and cell viability/cytotoxicity PODs for each tested lineage are considered for BER calculation.

rats = details: ref Supplementary Data Sheet 1, cited from earlier work
rabbits = test system: rabbits; design: method as in Supplementary Data Sheet 1; details: ref Supplementary Data Sheet 1, cited from earlier work
[12] = evidence of developmental or reproductive toxicity in animal or human, irrespective of exposure/dose, ref Supplementary Data Sheet 1
[13] = Non-Pregnant population, TKVF95 = p95 / weighted mean concentration-dose ratio
[14] = Fetus population, TKVF95 = p95 / weighted mean concentration-dose ratio
[15] = Pregnant population, TKVF95 = p95 / weighted mean concentration-dose ratio
[16] = Foetus, oral, combined (retinyl palmitate, dietary retinoids)
[17] = Non-Pregnant population (reference)
[18] = Non-Pregnant, oral, combined (retinyl palmitate, dietary retinoids)
[19] = Pregnant, oral, combined (retinyl palmitate, dietary retinoids)
[20] = Non-Pregnant, combined (oral, IV)

Compound: CCOP(=S)(OCC)Oc1nc(Cl)c(Cl)cc1Cl [Chlorpyrifos]
Mean Conc-dose -ratio ([1]; Non-Pregnant, oral): 0.002 uM/(mg/day]
DART Hazard Call [2]: Toxic
level of the high exposure group associated with developmental neurotoxicity (humans; prenatal exposure, cord blood biomonitoring): The high exposure CPF group (≥4.39 pg/g) was associated with developmental neurotoxicity

Compound: CCCCOC(=O)c1ccccc1C(=O)OCCCC [Dibutyl phthalate (DBP), Dibutyl phthalate]
DART Hazard Call [2]: Toxic
response in devTox quickPredict ([3]; at concentrations above the TDI): positive response

Compound: CCCCOC(=O)c1ccccc1C(=O)OCCCC [Dibutyl phthalate]
Intrinsic Liver Clearance [4]: 1887.4 L/h
Renal Clearance [5]: 0.2 L/h

Renal Clearance [5]: 2.012 L/h
Compound: CCOc1cc(CCC(C)=O)ccc1O [Ethylzingerone]
DART Hazard Call [2]: Non Toxic
Aqueous Solubility ([6]; pH 6.25): 7590 µg/mL
Exposure risk (DART risk classification) [7]: Low Risk

Compound: CC(C)(C)c1ccc(CCOc2ncnc3ccccc23)cc1 [Fenazaquin]
DART Hazard Call [2, 12]: Non Toxic
ADI [8]: ADI set by JMPR (0.05 mg/kg/day)
Aqueous Solubility ([6]; Solubility pH 7.01, median, ref [7],[8]): 0.19 µg/mL
Exposure risk (DART risk classification) ([7]; Dietary, 3 mg/daily, oral, ref Supplementary Data Sheet 1): Low Risk
NOAEL on which the ADI is based [9]: No evidence of developmental or reproductive toxicity. ADI is based on the NOAEL from this study of 5 mg/kg/day but this was based on parental/systemic toxicity and not reproductive effects.
BER ([10]; low-risk exposure scenario of the compound): < 1
Renal Clearance [5]: 0.577 L/h

Compound: CN(Cc1cnc2nc(N)nc(N)c2n1)c1ccc(C(=O)N[C@@H](CCC(=O)O)C(=O)O)cc1 [Methotrexate (MTX), Methotrexate]
TKVF [1, 13]: 2.74
TKVF ([1]; Non-Pregnant, combined (oral, intramuscular, subcutaneous)): 2.74
CDR fold difference to non-pregnant ([1]; female, human, in vivo): 1.11
TKVF ([1]; female, human, in vivo): 2.65
95% percentile (Conc-dose-ratio) ([1]; female, human, in vivo, sc): 0.15
Fold Difference to non-pregnant ([1]; female, human, in vivo, sc): 1.11
Mean Conc-dose -ratio ([1]; female, human, in vivo, sc): 0.055 uM/(mg/day]
TKVF ([1]; female, human, in vivo, sc): 2.65
CDR fold difference to non-pregnant ([1]; human, in vivo): 1.00
DART Hazard Call [2, 12]: Toxic
BER from devTOX quickPredict ([3]; PoD 0.06 μM, high-risk scenario 10 mg/weekly): ~1
concentration at which disruption to iPSC metabolism was detected ([3]; devTOX quickPredict): 0.06 µM
Exposure risk (DART risk classification) ([7]; Pharmaceutical, 10 mg/weekly, oral, ref Supplementary Data Sheet 1): High Risk
concentration leading to effects on iPSC differentiation ([11]; additional testing in ReproTracker, data not shown): above 0.0085 μM

Compound: CCN(CC)CCNC(=O)c1cc(Cl)c(N)cc1OC [Metoclopramide]
TKVF [1, 14]: 1.97
TKVF ([1]; Foetus, IV): 1.97
TKVF [1, 13]: 2.85
TKVF ([1]; Non-Pregnant, combined (oral+IV)): 2.85
TKVF [1, 15]: 2.71
TKVF ([1]; Pregnant, IV): 2.71
DART Hazard Call [2]: Toxic
exposure without adverse developmental effects, multiple of maximum recommended human dose (rats; oral, pregnant rats): ~6 times
exposure without adverse developmental effects, multiple of maximum recommended human dose (rabbits; oral, pregnant rabbits): ~12 times

BER ([10]; low-risk scenario of normal dietary exposure to retinol and its metabolite): < 1
Compound: CC1=C(/C=C/C(C)=C/C=C/C(C)=C/CO)C(C)(C)CCC1 [Retinol]
CDR fold difference to non-pregnant ([1]; Fetus population): 0.82
TKVF [1, 14]: 1.86
95% percentile (Conc-dose-ratio) [1, 16]: 2.85
Fold Difference to non-pregnant [1, 16]: 0.82
Fold Difference to pregnant [1, 16]: 0.93
Mean Conc-dose -ratio [1, 16]: 1.54 uM/(mg/day]
TKVF [1, 16]: 1.86
CDR fold difference to non-pregnant [1, 17]: 1.00
TKVF [1, 13]: 2.32
95% percentile (Conc-dose-ratio) [1, 18]: 4.34
Fold Difference to non-pregnant [1, 18]: 1.00
Mean Conc-dose -ratio [1, 18]: 1.87 uM/(mg/day]
TKVF [1, 18]: 2.32
CDR fold difference to non-pregnant ([1]; Pregnant population): 0.88
TKVF [1, 15]: 1.64
95% percentile (Conc-dose-ratio) [1, 19]: 2.70
Fold Difference to non-pregnant [1, 19]: 0.88
Fold Difference to pregnant [1, 19]: 1.00
Mean Conc-dose -ratio [1, 19]: 1.65 uM/(mg/day]
TKVF [1, 19]: 1.64
DART Hazard Call [2, 12]: Toxic
Exposure risk (DART risk classification) ([7]; Cosmetic, 0.05% in body lotion, dermal, ref Supplementary Data Sheet 1): Low Risk
Exposure risk (DART risk classification) ([7]; Dietary, <10,000 IU, oral, ref Supplementary Data Sheet 1): Low Risk
exposure above which DART effects are seen in vivo (humans): above 3,000 μg RE/day

Compound: CN(CCOc1ccc(CC2SC(=O)NC2=O)cc1)c1ccccn1 (centres unmarked) [Rosiglitazone]
TKVF ([1]; female, human, in vivo): 1.71
TKVF ([1]; female, human, in vivo, po): 1.71
TKVF ([1]; human, in vivo): 4.34
TKVF ([1]; human, in vivo, po): 4.34
no-effect dose for effects on the placenta, embryo/fetus and offspring (rats; rats): 0.2 mg/kg/day
no-effect dose for effects on the placenta, embryo/fetus and offspring (rabbits; rabbits): 15 mg/kg/day

Compound: O=C1CCC(N2C(=O)c3ccccc3C2=O)C(=O)N1 (centres unmarked) [Thalidomide]
95% percentile (Conc-dose-ratio) ([1]; human, in vivo, po): 0.06
Mean Conc-dose -ratio ([1]; human, in vivo, po): 0.036 uM/(mg/day]
TKVF ([1]; human, in vivo, po): 1.73
DART Hazard Call [2, 12]: Toxic
Exposure risk (DART risk classification) ([7]; Pharmaceutical, 50 mg/daily, oral, ref Supplementary Data Sheet 1): High Risk
mortality at or shortly after birth (humans; infants): Thalidomide is a powerful human teratogen, inducing a high frequency of severe and life-threatening birth defects, even after a single dose. Mortality at or shortly after birth has been reported in about 40% of infants.

BER from ReproTracker ([11]; Figure 8B): < 1
Compound: CCCC(CCC)C(=O)O [Valproic acid (VPA), Valproic acid]
CDR fold difference to non-pregnant ([1]; Fetus population): 0.78
CDR fold difference to pregnant ([1]; Fetus population): 1.13
TKVF [1, 14]: 1.52
95% percentile (Conc-dose-ratio) ([1]; Foetus, combined (oral, IV)): 0.52
Fold Difference to non-pregnant ([1]; Foetus, combined (oral, IV)): 0.78
Fold Difference to pregnant ([1]; Foetus, combined (oral, IV)): 1.13
Mean Conc-dose -ratio ([1]; Foetus, combined (oral, IV)): 0.34 uM/(mg/day]
TKVF ([1]; Foetus, combined (oral, IV)): 1.52
CDR fold difference to non-pregnant [1, 17]: 1.00
TKVF [1, 13]: 1.62
95% percentile (Conc-dose-ratio) [1, 20]: 0.71
Fold Difference to non-pregnant [1, 20]: 1.00
Mean Conc-dose -ratio [1, 20]: 0.44 uM/(mg/day]
TKVF [1, 20]: 1.62
CDR fold difference to non-pregnant ([1]; Pregnant population): 0.69
CDR fold difference to pregnant ([1]; Pregnant population (reference)): 1.00
TKVF [1, 15]: 1.85
95% percentile (Conc-dose-ratio) ([1]; Pregnant, combined (oral, IV)): 0.56
Fold Difference to non-pregnant ([1]; Pregnant, combined (oral, IV)): 0.69
Fold Difference to pregnant ([1]; Pregnant, combined (oral, IV)): 1.00
Mean Conc-dose -ratio ([1]; Pregnant, combined (oral, IV)): 0.30 uM/(mg/day]
TKVF ([1]; Pregnant, combined (oral, IV)): 1.85
DART Hazard Call [2, 12]: Toxic
BER from devTOX quickPredict ([3]; Figure 8B): < 1
Exposure risk (DART risk classification) ([7]; Pharmaceutical, 600 mg/daily, oral, ref Supplementary Data Sheet 1): High Risk
Exposure risk (DART risk classification) ([7]; Pharmaceutical, 3,600 mg/daily, oral, ref Supplementary Data Sheet 1): High Risk

Compound: CC(=O)CC(c1ccccc1)c1c(O)c2ccccc2oc1=O (centres unmarked) [Warfarin]
TKVF ([1]; female, human, in vivo): 1.93
TKVF ([1]; female, human, in vivo, po): 1.93
TKVF ([1]; human, in vivo): 1.82
TKVF ([1]; human, in vivo, po): 1.82
ReproTracker outcome ([11]; at higher concentrations, not sensitive enough for a protective PoD): flags potential embryotoxicity
